Measurements as given in PMC4337820 (Journal of medicinal chemistry, 2015).
Read-outs that look alike come from different tables or passages of the source.

Tests used:
[1] = system: T.b. rhodesiense, strain STIB 900 trypomastigotes; assay: In vitro activity against T. b. rhodesiense; format: cell-based; conditions: for anti-HAT activity class (TDR criteria): BSF T. b. rhodesiense
[2] = system: T. cruzi, strain Tulahuen C4 amastigotes; assay: In vitro activity against T. cruzi amastigotes; format: cell-based; conditions: for antichagasic activity class (TDR criteria): T. cruzi amastigotes; for Bnz/comp: fold potency against T. cruzi relative to Bnz; for SI (IC50 in L6 cells/IC50 in T. cruzi): selectivity index vs L6 cells
[3] = system: L6 cells (rat skeletal myoblasts); assay: Cytotoxicity in host L6 cells; format: cell-based
Chagas disease = conditions: cited from earlier work; for cure rates, chronic stage: adults in the chronic stage
[4] = system: blood stream form T. b. brucei parasites overexpressing TbNTR; assay: Susceptibility of blood stream form T. b. brucei with or without elevated TbNTR; format: cell-based
T. cruzi CYP51 [5] = target: T1, T. cruzi CYP51 (Trypanosoma cruzi, UniProt Q7Z1V1); assay: Reconstituted CYP51 reaction inhibition; format: biochemical; conditions: compound 19: at high I/E ratios (≥ 20)
T1 sequence (Q7Z1V1 whole entry): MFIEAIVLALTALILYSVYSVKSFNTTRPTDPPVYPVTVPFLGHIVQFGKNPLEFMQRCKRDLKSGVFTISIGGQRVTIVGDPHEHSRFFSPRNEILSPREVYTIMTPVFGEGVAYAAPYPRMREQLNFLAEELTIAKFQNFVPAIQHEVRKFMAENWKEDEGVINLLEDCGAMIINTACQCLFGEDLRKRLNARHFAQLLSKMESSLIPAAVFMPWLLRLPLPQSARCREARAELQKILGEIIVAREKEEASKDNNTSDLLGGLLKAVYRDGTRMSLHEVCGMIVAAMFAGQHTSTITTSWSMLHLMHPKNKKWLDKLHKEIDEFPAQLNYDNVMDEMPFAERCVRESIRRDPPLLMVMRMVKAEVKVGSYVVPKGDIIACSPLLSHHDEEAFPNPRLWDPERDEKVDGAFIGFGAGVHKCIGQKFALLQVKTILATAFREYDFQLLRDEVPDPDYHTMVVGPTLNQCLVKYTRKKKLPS

Caco-2 cells = assay: Caco-2 monolayer permeability; format: in vitro ADME; conditions: 10 μM, 2 h
[6] = system: transgenic T. cruzi parasites expressing firefly luciferase; assay: In vivo antichagasic activity, acute T. cruzi infected murine model; conditions: i.p., 15 mg/kg/day (compound 5: 13 mg/kg/day)
T. cruzi CYP51 [7] = target: T1, T. cruzi CYP51; assay: Spectral titration binding to T. cruzi CYP51; conditions: TcCYP51 spectral response
[8] = system: T.b. rhodesiense, strain STIB 900 trypomastigotes; conditions: cited from earlier work
[9] = system: T. cruzi, strain Tulahuen C4 amastigotes; conditions: cited from earlier work
[10] = system: L6 cells (rat skeletal myoblasts); conditions: read-out: Cytotox. L6 IC-50; host L6 cells; cited from earlier work
[11] = polar surface area, predicted; cited from earlier work
[12] = Caco-2 monolayer permeability; format: in vitro ADME; conditions: human, Caco-2
[13] = read-out: T.b.rhod. IC-50, strain STIB 900 trypomastigotes
[14] = read-out: T.cruzi IC-50, strain Tulahuen C4 amastigotes

1-(4-phenylphenyl)-2-(1H-1,2,4-triazol-1-yl)ethan-1-one [Compound 11]
IC50 [1, 13]: 1.75 µM | SI (IC50 in L6 cells/IC50 in T.b. rhodesiense) ([1]; selectivity index vs L6 cells): 125 | antichagasic activity class (TDR criteria) [2]: active | Bnz/comp [2]: 11.9 | IC50 [2, 14]: 0.188 µM | SI (IC50 in L6 cells/IC50 in T. cruzi) [2]: 1164 | IC50 [3]: 220 µM

O=C(Cn1ccnc1[N+](=O)[O-])NCc1ccccc1 [Bnz, N-benzyl-2-(2-nitro-1H-imidazol-1-yl)acetamide]
cure rates, acute phase (Chagas disease; acute phase of Chagas disease): 65-80% | cure rates, chronic stage (Chagas disease): 15-30%

N#Cc1ccc(-c2ccc(NC(=O)Cn3cnc([N+](=O)[O-])n3)cc2)cc1 [Compound 2, N-[4-(4-cyanophenyl)phenyl]-2-(3-nitro-1H-1,2,4-triazol-1-yl)acetamide]
anti-HAT activity class (TDR criteria) [1]: active | Bnz/comp [2]: 10.77 | fold more susceptible, TbNTR-overexpressing vs non-induced parasites [4]: 2 to 3 fold | reversibility of TcCYP51 inhibition (T. cruzi CYP51 [5]): reversible | Caco 2 permeability ranking (Caco-2 cells): high | parasite levels after 5 days of treatment [6]: undetectable levels

O=C(Cn1cnc([N+](=O)[O-])n1)Nc1nc(-c2ccc(Cl)cc2)cs1 [Compound 3, N-[4-(4-chlorophenyl)-1,3-thiazol-2-yl]-2-(3-nitro-1H-1,2,4-triazol-1-yl)acetamide]
antichagasic activity class (TDR criteria) [2]: active | Bnz/comp [2]: 7.24

O=C(Cn1cnc([N+](=O)[O-])n1)Nc1nnc(-c2ccc(Cl)cc2)s1 [Compound 4, N-[5-(4-chlorophenyl)-1,3,4-thiadiazol-2-yl]-2-(3-nitro-1H-1,2,4-triazol-1-yl) acetamide]
anti-HAT activity class (TDR criteria) [1]: did not show any anti-HAT activity | Bnz/comp [2]: 0.04

O=C(Cn1cnc([N+](=O)[O-])n1)Nc1ccc(-c2ccc(Cl)cc2)cc1 [Compound 5, N-(4′-chloro-[1,1′-biphenyl]-4-yl)-2-(3-nitro-1H-1,2,4-triazol-1-yl)acetamide]
factor of increased efficacy against T. cruzi compared to analog 2 [2]: 3 fold | parasite levels after 5 days of treatment [6]: undetectable levels

O=C(Cn1cnc([N+](=O)[O-])n1)Nc1nc(-c2ccc(F)c(F)c2)cs1 [Compound 6, N-(4-(3,4-difluorophenyl)thiazol-2-yl)-2-(3-nitro-1H-1,2,4-triazol-1-yl)acetamide]
anti-HAT activity class (TDR criteria) [1]: inactive | antichagasic activity class (TDR criteria) [2]: active | Bnz/comp [2]: 4.42

O=C(Cn1ccnc1[N+](=O)[O-])Nc1nc(-c2ccc(F)c(F)c2)cs1 [Compound 7, N-(4-(3,4-difluorophenyl)thiazol-2-yl)-2-(2-nitro-1H-imidazol-1-yl)acetamide]
anti-HAT activity class (TDR criteria) [1]: inactive | fold less active against T. cruzi compared to 6 [2]: about 8.7 fold | antichagasic activity class (TDR criteria) [2]: borderline active | Bnz/comp [2]: 0.51

Cc1nc(-c2cccc(NC(=O)Cn3cnc([N+](=O)[O-])n3)c2)cs1 [Compound 8, N-(3-(2-methylthiazol-4-yl)phenyl)-2-(3-nitro-1H-1,2,4-triazol-1-yl)acetamide]
antichagasic activity class (TDR criteria) [2]: active | Bnz/comp [2]: 3.67

O=C(Cn1cnc([N+](=O)[O-])n1)Nc1ccc(N2CCCCC2)cc1 [Compound 9, 2-(3-nitro-1H-1,2,4-triazol-1-yl)-N-(4-(piperidin-1-yl)phenyl)acetamide]
anti-HAT activity class (TDR criteria) [1]: inactive | antichagasic activity class (TDR criteria) [2]: active | Bnz/comp [2]: 3.66

O=C(Cn1cnc([N+](=O)[O-])n1)c1ccc(F)cc1F [Compound 10, 1-(2,4-difluorophenyl)-2-(3-nitro-1H-1,2,4-triazol-1-yl)ethan-1-one]
antichagasic activity class (TDR criteria) [2]: active | Bnz/comp [2]: 1.29

CC(O)(Cn1cnc([N+](=O)[O-])n1)c1ccc(-n2ccnc2)cc1 (stereo not shown) [Compound 14, 2-[4-(1H-imidazol-1-yl)phenyl]-1-(3-nitro-1H-1,2,4-triazol-1-yl)propan-2-ol]
fold less potent against T. cruzi than 17 [2]: 32 fold | antichagasic activity class (TDR criteria) [2]: active | Bnz/comp [2]: 0.68

CC(O)(Cn1cncn1)c1ccc(-n2ccnc2)cc1 (stereo not shown) [Compound 15, 2-[4-(1H-imidazol-1-yl)phenyl]-1-(1H-1,2,4-triazol-1-yl)propan-2-ol]
anti-HAT activity class (TDR criteria) [1]: inactive

CC(O)(Cn1cncn1)c1ccc(-c2ccccc2)cc1 (stereo not shown) [Compound 16, 2-(4-phenylphenyl)-1-(1H-1,2,4-triazol-1-yl)propan-2-ol]
anti-HAT activity class (TDR criteria) [1]: inactive | fold less potent against T. cruzi than 17 [2]: 7 fold | antichagasic activity class (TDR criteria) [2]: active | Bnz/comp [2]: 3.17

CC(O)(Cn1cnc([N+](=O)[O-])n1)c1ccc(-c2ccccc2)cc1 (stereo not shown) [Compound 17, 1-(3-nitro-1H-1,2,4-triazol-1-yl)-2-(4-phenylphenyl)propan-2-ol]
Bnz/comp [2]: 21.94

O=[N+]([O-])c1ncn(CC(O)(Cn2cncn2)c2ccc(F)cc2F)n1 (stereo not shown) [Compound 18, 2-(2,4-difluorophenyl)-1-(3-nitro-1H-1,2,4-triazol-1-yl)-3-(1H-1,2,4-triazol-1-yl)-propan-2-ol]
fold less potent against T. cruzi than 19 [2]: 36 fold | fold more potent against T. cruzi than fluconazole [2]: 8.5 fold | Bnz/comp [2]: 1.81

O=[N+]([O-])c1ncn(CC(O)(Cn2cncn2)c2ccc(-c3ccccc3)cc2)n1 (stereo not shown) [Compound 19, 1-(3-nitro-1H-1,2,4-triazol-1-yl)-2-(4-phenylphenyl)-3-(1H-1,2,4-triazol-1-yl)propan-2-ol]
apparent Kd, fold stronger than fluconazole (T. cruzi CYP51 [7]): 10 fold | reversibility of TcCYP51 inhibition (T. cruzi CYP51 [5]): irreversible | Caco 2 permeability ranking (Caco-2 cells): high

Fc1ccc(C2(Cn3cncn3)Cn3ccnc3O2)c(F)c1 (stereo not shown) [Compound 20, 1-{[2-(2,4-difluorophenyl)-2H,3H-imidazo[2,1-b][1,3]oxazol-2-yl]methyl}-1H-1,2,4-triazole]
fold less potent against T. cruzi than 18 [2]: about 5 fold | Bnz/comp [2]: 0.35 | SI (IC50 in L6 cells/IC50 in T. cruzi) [2]: >49.4

Cc1ccc(S(=O)(=O)NC(Cc2ccccc2)Cn2cnc([N+](=O)[O-])n2)cc1 (stereo not shown) [Compound 21, 4-Methyl-N-[1-(3-nitro-1H-1,2,4-triazol-1-yl)-3-phenylpropan-2-yl]benzene-1-sulfonamide]
fold less potent against T. cruzi than 17 [2]: about 3 fold | antichagasic activity class (TDR criteria) [2]: active | Bnz/comp [2]: 1.7

O=[N+]([O-])c1ncn(CCCNS(=O)(=O)c2ccc(Cl)s2)n1 [Compound 23]
IC50 [8, 13]: 1.99 µM | SI (IC50 in L6 cells/IC50 in T.b. rhodesiense) ([8]; selectivity index vs L6 cells): 122 | Bnz/comp ([9]; fold potency against T. cruzi relative to Bnz): 3.6 | IC50 [9, 14]: 0.438 µM | SI (IC50 in L6 cells/IC50 in T. cruzi) ([9]; selectivity index vs L6 cells): 556 | IC50 [10]: 244 µM | PSA [11]: 122.7 Å^2

Nc1nc(N)nc(Nc2ccc([As]3SCC(CO)S3)cc2)n1 (stereo not shown) [Melars., Melarsoprol, reference compound]
IC50 ([1]; Trypanosoma brucei, RHODESIENSE|STIB900, read-out: T.b.rhod. IC-50): 0.007 ± 0.001 µM

CC1CS(=O)(=O)CCN1/N=C/c1ccc([N+](=O)[O-])o1 (stereo not shown) [Nfx, 4-(5-nitrofurfurylindenamino)-3-methylthio-morpholine-1,1-dioxide]
cure rates, chronic stage (Chagas disease): 15-30%

CNC(=C[N+](=O)[O-])NCCSCc1ccc(CN(C)C)o1 [Ranitidine, reference compound]
Papp A→B at 2 h, 10 µM [12]: 2.4 nm/s

CC[C@@H]([C@H](C)O)n1ncn(-c2ccc(N3CCN(c4ccc(OC[C@@H]5CO[C@@](Cn6cncn6)(c6ccc(F)cc6F)C5)cc4)CC3)cc2)c1=O [posaconazole]
treatment failure (Chagas disease; clinical trials, human patients with chronic Chagas disease): ~80%
